Laboratory results from patent publication US20120225862A1, “HETEROARYL BENZAMIDES, COMPOSITIONS AND METHODS OF USE” (AUCKLAND UNIVSERVICES LIMITED, priority 2009, published 2012).

Columns and labels:
[1] = tested on: RCC4; assay: XTT IC50 / viability assay, RCC4 cells; assay type: cell-based, human; conditions: Homo sapiens, RCC4, 96 h; XTT assay, four days
Method in brief: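 RCC4 parental and VHL-reintroduced RCC4/VHL cells (DMEM, 10% FCS) treated with serially diluted drug for four days. Viability by XTT (0.3 mg/mL) with N-methyl dibenzopyrazine methyl sulfate, 1–2 h at 37 °C, absorbance 450 nm; IC50 by linear interpolation.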

COC(=O)c1ccc(S(=O)(=O)NCc2ccc(C(=O)Nc3cccnc3)cc2)cc1 [Example 47, Methyl 4-(N-(4-(Pyridin-3-ylcarbamoyl)benzyl)sulfamoyl)benzoate]
melting point: 212 to 215 °C | IC50 [1]: > 20 µM

Cc1ncccc1NC(=O)c1ccc(CNS(=O)(=O)c2ccc(C(C)(C)C)cc2)cc1 [Example 108, 4-({[(4-tert-Butylphenyl)sulfonyl]amino}methyl)-N-(2-methyl-3-pyridinyl)benzamide]
melting point: 188 to 190 °C | IC50 [1]: > 20 µM

Cc1ccncc1NC(=O)c1ccc(CNS(=O)(=O)c2ccc(C(C)(C)C)cc2)cc1 [Example 114, 4-({[(4-tert-Butylphenyl)sulfonyl]amino}methyl)-N-(4-methyl-3-pyridinyl)benzamide]
melting point: 183 to 185 °C | IC50 [1]: > 20 µM

O=C(Nc1cccnc1)c1ccc(CNS(=O)(=O)c2ccc(C#CCO)cc2)cc1 [Example 103, 4-[({[4-(3-Hydroxy-1-propynyl)phenyl]sulfonyl}amino)methyl]-N-(3-pyridinyl)benzamide]
melting point: 207 to 210 °C | IC50 [1]: > 20 µM

O=C(Nc1ncccn1)c1ccc(CNS(=O)(=O)c2ccccc2)cc1 [Example 9, 4-(Phenylsulfonamidomethyl)-N-(pyrimidin-2-yl)benzamide]
melting point: 180 to 182 °C | IC50 [1]: > 20 µM

O=C(Nc1nccs1)c1ccc(CNS(=O)(=O)c2ccccc2)cc1 [Example 4, 4-(Phenylsulfonamidomethyl)-N-(thiazol-2-yl)benzamide]
melting point: 189 to 191 °C | IC50 [1]: > 20 µM

O=C(Nc1cc[nH]n1)c1ccc(CNS(=O)(=O)c2ccccc2)cc1 [Example 5, 4-(Phenylsulfonamidomethyl)-N-(1H-pyrazol-3-yl)benzamide]
melting point: 180 to 182 °C | IC50 [1]: > 20 µM

CC(C)(C)c1ccc(S(=O)(=O)NCc2ccc(C(=O)Nc3ccc(F)nc3)cc2)cc1 [Example 120, 4-({[(4-tert-Butylphenyl)sulfonyl]amino}methyl)-N-(6-fluoro-3-pyridinyl)benzamide]
melting point: 254 to 257 °C | IC50 [1]: > 20 µM

COC(=O)c1ccccc1S(=O)(=O)NCc1ccc(C(=O)Nc2cccnc2)cc1 [Example 14, Methyl 2-(N-(4-(Pyridin-3-ylcarbamoyl)benzyl)sulfamoyl)benzoate]
melting point: 155 to 157 °C | IC50 [1]: > 20 µM

COCCCc1ccc(S(=O)(=O)NCc2ccc(C(=O)Nc3cccnc3)cc2)cc1 [Example 101, 4-[({[4-(3-Methoxypropyl)phenyl]sulfonyl}amino)methyl]-N-(3-pyridinyl)benzamide]
melting point: 172 to 174 °C | IC50 [1]: 1 to 20 µM

O=C(Nc1cccnc1)c1ccc(CNS(=O)(=O)c2ccccc2C(F)(F)F)cc1 [Example 15, N-(pyridin-3-yl)-4-((2-(trifluoromethyl)phenylsulfonamido)methyl)benzamide]
melting point: 234 to 237 °C | IC50 [1]: > 20 µM

Cc1cncc(NC(=O)c2ccc(CNS(=O)(=O)c3ccc(C(C)(C)C)cc3)cc2)c1 [Example 107, 4-({[(4-tert-Butylphenyl)sulfonyl]amino}methyl)-N-(5-methyl-3-pyridinyl)benzamide]
melting point: 189 to 191 °C | IC50 [1]: > 20 µM

O=C(Nc1cnc2ccccc2c1)c1ccc(CNS(=O)(=O)c2ccccc2)cc1 [Example 6, 4-(Phenylsulfonamidomethyl)-N-(quinolin-3-yl)benzamide]
melting point: 186 to 188 °C | IC50 [1]: > 20 µM

COc1ccc(C(=O)NCc2ccc(C(=O)Nc3cccnc3)cc2)cc1OC [Example 88, 3,4-Dimethoxy-N-(4-(pyridin-3-ylcarbamoyl)benzyl)benzamide]
melting point: 219 to 220 °C | IC50 [1]: > 20 µM

O=C(Nc1cccc2ncccc12)c1ccc(CNS(=O)(=O)c2ccccc2)cc1 [Example 7, 4-(Phenylsulfonamidomethyl)-N-(quinolin-5-yl)benzamide]
melting point: 198 to 201 °C | IC50 [1]: > 20 µM

CC(C)(C)c1ccc(S(=O)(=O)NCc2ccc(C(=O)Nc3cccnc3[N+](=O)[O-])cc2)cc1 [Example 116, 4-({[(4-tert-Butylphenyl)sulfonyl]amino}methyl)-N-(2-nitro-3-pyridinyl)benzamide]
melting point: 191 to 193 °C | IC50 [1]: > 20 µM

CC(C)(C)c1ccc(S(=O)(=O)NCc2ccc(C(=O)Nc3cncc(Cl)c3)cc2)cc1 [Example 115, 4-({[(4-tert-Butylphenyl)sulfonyl]amino}methyl)-N-(5-chloro-3-pyridinyl)benzamide]
melting point: 217 to 219 °C | IC50 [1]: > 20 µM

COc1ccncc1NC(=O)c1ccc(CNS(=O)(=O)c2ccc(C(C)(C)C)cc2)cc1 [Example 124, 4-({[(4-tert-Butylphenyl)sulfonyl]amino}methyl)-N-(4-methoxy-3-pyridinyl)benzamide]
melting point: 231 to 233 °C | IC50 [1]: > 20 µM

O=C(Nc1cccnc1)c1ccc(CNS(=O)(=O)c2ccc(-c3cccc(C(F)(F)F)c3)cc2)cc1 [Example 134, N-(3-Pyridinyl)-4-[({[3′-(trifluoromethyl)[1,1′-biphenyl]-4-yl]sulfonyl}amino)methyl]benzamide]
melting point: 227 to 229 °C | IC50 [1]: > 20 µM

Cc1ccc(NC(=O)c2ccc(CNS(=O)(=O)c3ccc(C(C)(C)C)cc3)cc2)cn1 [Example 109, 4-({[(4-tert-Butylphenyl)sulfonyl]amino}methyl)-N-(6-methyl-3-pyridinyl)benzamide]
melting point: 235 to 237 °C | IC50 [1]: > 20 µM

Cc1cc(C)cc(C(=O)NCc2ccc(C(=O)Nc3cccnc3)cc2)c1 [Example 87, 3,5-Dimethyl-N-(4-(pyridin-3-ylcarbamoyl)benzyl)benzamide]
melting point: 241 to 243 °C | IC50 [1]: > 20 µM

COc1ccc(NC(=O)c2ccc(CNS(=O)(=O)c3ccc(C(C)(C)C)cc3)cc2)cn1 [Example 110, 4-({[(4-tert-Butylphenyl)sulfonyl]amino}methyl)-N-(6-methoxy-3-pyridinyl)benzamide]
melting point: 238 to 240 °C | IC50 [1]: > 20 µM

CC(C)(C)c1ccc(S(=O)(=O)NCc2ccc(C(=O)Nc3cncc(F)c3)cc2)cc1 [Example 121, 4-({[(4-tert-Butylphenyl)sulfonyl]amino}methyl)-N-(5-fluoro-3-pyridinyl)benzamide]
melting point: 214 to 217 °C | IC50 [1]: > 20 µM

CCCN(Cc1ccc(C(=O)Nc2cccnc2)cc1)S(=O)(=O)c1ccc(C(C)(C)C)cc1 [Example 140, 4-{[[(4-tert-Butylphenyl)sulfonyl](propyl)amino]methyl}-N-(3-pyridinyl)benzamide]
melting point: 177 to 179 °C | IC50 [1]: > 20 µM

Cc1c(Cl)cccc1S(=O)(=O)NCc1ccc(C(=O)Nc2cccnc2)cc1 [Example 68, 4-((3-Chloro-2-methylphenylsulfonamido)methyl)-N-(pyridin-3-yl)benzamide]
melting point: 218 to 221 °C | IC50 [1]: > 20 µM

O=C(Nc1ccncc1)c1ccc(CNS(=O)(=O)c2ccc(I)cc2)cc1 [Example 99]
melting point: 270 to 273 °C | IC50 [1]: > 20 µM

CC(C)(C)c1ccc(S(=O)(=O)NCc2ccc(C(=O)Nc3ccc(C(F)(F)F)nc3)cc2)cc1 [Example 118, 4-({[(4-tert-Butylphenyl)sulfonyl]amino}methyl)-N-[6-(trifluoromethyl)-3-pyridinyl]benzamide]
melting point: 249 to 252 °C | IC50 [1]: > 20 µM

O=C(Nc1cnccn1)c1ccc(CNS(=O)(=O)c2ccccc2)cc1 [Example 8, 4-(Phenylsulfonamidomethyl)-N-(pyrazin-2-yl)benzamide]
melting point: 200 to 202 °C | IC50 [1]: > 20 µM

CC(C)(C)c1ccc(S(=O)(=O)NCc2ccc(C(=O)Nc3ccc(Cl)nc3)cc2)cc1 [Example 111, 4-({[(4-tert-Butylphenyl)sulfonyl]amino}methyl)-N-(6-chloro-3-pyridinyl)benzamide]
melting point: 251 to 253 °C | IC50 [1]: > 20 µM

COC(=O)CCc1ccc(S(=O)(=O)NCc2ccc(C(=O)Nc3cccnc3)cc2)cc1 [Example 41, Methyl 3-{4-[({4-[(3-Pyridinylamino)carbonyl]benzyl}amino)sulfonyl]phenyl}propanoate]
melting point: 181 to 182 °C | IC50 [1]: > 20 µM

O=C(Nc1ccc[n+]([O-])c1)c1ccc(CNS(=O)(=O)c2ccccc2)cc1 [Example 93, N-(1-Oxido-3-pyridinyl)-4-((phenylsulfonamido)methyl)-benzamide]
melting point: 230 to 231 °C | IC50 [1]: > 20 µM

O=C(Nc1cccnc1)c1ccc(CNS(=O)(=O)c2ccc([N+](=O)[O-])cc2)cc1 [Example 51, 4-((4-Nitrophenylsulfonamido)methyl)-N-(pyridin-3-yl)benzamide]
melting point: 241 to 243 °C | IC50 [1]: > 20 µM

CC(C)(C)c1ccc(S(=O)(=O)NCc2ccc(C(=O)Nc3ccc(Br)nc3)cc2)cc1 [Example 125, N-(6-Bromo-3-pyridinyl)-4-({[(4-tert-butylphenyl)sulfonyl]amino}methyl)benzamide]
melting point: 242 to 244 °C | IC50 [1]: > 20 µM
